Data set [1] relates to Staphylococcus aureus. Description: Antibacterial activity against trimethoprim-resistant Staphylococcus aureus. The data set is classed as functional.
Data set [2] concerns Staphylococcus aureus. Description: Antibacterial activity against Staphylococcus aureus infected in mouse assessed as protection of mouse. The data set is classed as functional.
A short description of data set [3]: Cytotoxicity against human A549 cells assessed as cell viability recovery at up to 9.2 uM by MTT assay relative to untreated control. Conditions: read-out: Activity. Format: cell-based. On the technique in general: Tetrazolium assays rely on reduction of a dye to a coloured formazan, in cell work by metabolically active cells.
Data set [4] is described as follows: Cytotoxicity against human A549 cells assessed as cell viability recovery up to 459 uM by MTT assay relative to untreated control. The data set is classed as cell-based. As to conditions: read-out: Activity.
Data set [5] concerns Staphylococcus aureus. Briefly: Antimicrobial activity against methicillin-resistant Staphylococcus aureus CBD-635 assessed as complete inhibition of bacterial growth at 5 times MIC after overnight incubation in presence of tetrahydrofolic acid. Format: functional, organism-based.
Data set [6] in a line: Cytotoxicity against human A549 cells assessed as cell viability recovery at 36.7 to 459 uM by MTT assay relative to untreated control. Format: cell-based. Conditions: read-out: Activity.
The test system of data set [7] is Staphylococcus aureus. Briefly: Antimicrobial activity against methicillin-resistant Staphylococcus aureus CBD-635 assessed as complete inhibition of bacterial growth after overnight incubation. Format: functional.
In data set [8] the test system is Staphylococcus aureus. Description: Bactericidal activity against methicillin-resistant Staphylococcus aureus CBD-635 assessed as bacterial killing. The data set is classed as functional.
Data set [9] concerns Staphylococcus aureus. Briefly: Antimicrobial activity against methicillin-resistant Staphylococcus aureus CBD-635 assessed as zone of inhibition at 5 mg/ml after 24 hrs by disk diffusion assay. As to conditions: CBD-635, 24 h, read-out: IZ. Format: functional. On the technique in general: A growth-free zone around the sample is the usual read-out of agar diffusion tests.
A short description of data set [10]: Cytotoxicity against human A549 cells assessed as cell viability recovery at 370 uM by MTT assay relative to untreated control. Format: cell-based. Conditions: read-out: Activity.
Data set [11] concerns Staphylococcus aureus. Description: Antimicrobial activity against Staphylococcus aureus infected in mouse assessed as increase in mouse survival at 5 times MIC via tail vein relative to untreated control. The data set is classed as functional.
Data set [12] concerns Staphylococcus aureus. Briefly: Antimicrobial activity against N2,N4-dibenzylquinazoline-2,4-diamine-induced methicillin-resistant Staphylococcus aureus CBD-635 mutant M2 assessed as complete inhibition of bacterial growth after overnight incubation. Format: functional.
In data set [13] the test system is Staphylococcus aureus. Briefly: Antimicrobial activity against Staphylococcus aureus infected Galleria mellonella assessed as increase in larvae survival at 5 times MIC. Format: functional.
Data set [14] can be described thus: Aqueous solubility of the compound at pH 7.4 after 18 hrs incubation by HPLC. Format: physicochemical.
Data set [15] deals with Staphylococcus aureus. Briefly: Antimicrobial activity against N2,N4-dibenzylquinazoline-2,4-diamine-induced methicillin-resistant Staphylococcus aureus CBD-635 mutant M4 assessed as complete inhibition of bacterial growth after overnight incubation. Format: functional.
Data set [16] has as its system Staphylococcus aureus. Description: Antimicrobial activity against N2,N4-dibenzylquinazoline-2,4-diamine-induced methicillin-resistant Staphylococcus aureus CBD-635 mutant M5 assessed as complete inhibition of bacterial growth after overnight incubation. The data set is classed as functional.
Data set [17] in a line: Aqueous solubility of the compound at pH 2 after 18 hrs incubation by HPLC. Format: physicochemical.
Data set [18] has as its system Staphylococcus aureus. Briefly: Antimicrobial activity against wild type Staphylococcus aureus in presence of sulfamethoxazole. Format: functional.
Data set [19] is described as follows: Lipophilicity, log D of the compound at pH 3. The data set is classed as physicochemical. Conditions: buffer.
In data set [20] the test system is Staphylococcus aureus. Description: Antimicrobial activity against N2,N4-dibenzylquinazoline-2,4-diamine-induced methicillin-resistant Staphylococcus aureus CBD-635 mutant M6 assessed as complete inhibition of bacterial growth after overnight incubation. The data set is classed as functional.
Data set [21] relates to Staphylococcus aureus. Description: Antimicrobial activity against trimethoprim-resistant Staphylococcus aureus assessed as complete inhibition of bacterial growth after 24 hrs. Format: functional, organism-based.
Data set [22] concerns Staphylococcus aureus. Briefly: Antimicrobial activity against N2,N4-dibenzylquinazoline-2,4-diamine-induced methicillin-resistant Staphylococcus aureus CBD-635 mutant M3 assessed as complete inhibition of bacterial growth after overnight incubation. The data set is classed as functional.
In data set [23] the test system is Staphylococcus aureus. Description: Antimicrobial activity against N2,N4-dibenzylquinazoline-2,4-diamine-induced methicillin-resistant Staphylococcus aureus CBD-635 mutant assessed as complete inhibition of bacterial growth after overnight incubation. Format: functional.
Data set [24] concerns Staphylococcus aureus. Briefly: Antimicrobial activity against methicillin-resistant Staphylococcus aureus infected in mouse assessed as complete protection to mouse at MIC via tail vein relative to untreated control. Format: functional, organism-based.
Data set [25] relates to Staphylococcus aureus. Description: Antimicrobial activity against Staphylococcus aureus infected in mouse assessed as increase in mouse survival at 10 times MIC via tail vein relative to untreated control. The data set is classed as functional, organism-based.
A short description of data set [26]: Cytotoxicity against human A549 cells assessed as cell viability recovery up to 367 uM by MTT assay relative to untreated control. The data set is classed as cell-based. Conditions: read-out: Activity.
The conditions of data set [27]: pampa, pH 7.4.
The conditions of data set [28]: pampa, pH 4.
Data set [29] has as its system Staphylococcus aureus. Description: Antimicrobial activity against quinazoline-resistant Staphylococcus aureus assessed as complete inhibition of bacterial growth after 24 hrs. Format: functional, organism-based.
Data set [30] concerns Staphylococcus aureus. Description: Antimicrobial activity against N2,N4-dibenzylquinazoline-2,4-diamine-induced methicillin-resistant Staphylococcus aureus CBD-635 mutant M1 assessed as complete inhibition of bacterial growth after overnight incubation. Format: functional.
The test system of data set [31] is Staphylococcus aureus. Description: Antimicrobial activity against N2,N4-dibenzylquinazoline-2,4-diamine-induced methicillin-resistant Staphylococcus aureus CBD-635 mutant M7 assessed as complete inhibition of bacterial growth after overnight incubation. The data set is classed as functional.
Data set [32] in a line: Lipophilicity, log D of the compound at pH 7.4. Format: physicochemical. As to conditions: buffer.
Data set [33] in a line: Cytotoxicity against human A549 cells assessed as cell viability recovery at 1.5 uM by MTT assay relative to untreated control. Format: cell-based. As to conditions: read-out: Activity.
In another data set the test system is Candida albicans. Briefly: Antimicrobial activity against Candida albicans. The data set is classed as functional.
In the next data set the test system is Bacillus subtilis. Briefly: Antimicrobial activity against Bacillus subtilis. The data set is classed as functional, organism-based.
The test system of a further data set is Aspergillus niger. Description: Antimicrobial activity against Aspergillus niger. Format: functional.
The next data set deals with Escherichia coli. Briefly: Antimicrobial activity against Escherichia coli. Format: functional.
Data set [34] deals with Staphylococcus aureus. Briefly: Antimicrobial activity against Staphylococcus aureus. The data set is classed as functional, organism-based.
Another data set relates to Trichoderma viride. Briefly: Antimicrobial activity against Trichoderma viride. Format: functional.
The test system of a further data set is Streptococcus pyogenes. Briefly: Antimicrobial activity against Streptococcus pyogenes. Format: functional.
In another data set the test system is Klebsiella pneumoniae. Description: Antimicrobial activity against Klebsiella pneumoniae. The data set is classed as functional.
Another data set relates to Salmonella typhimurium. Description: Antimicrobial activity against Salmonella typhimurium. Format: functional, Salmonella enterica subsp. enterica serovar Typhimurium. As to conditions: Salmonella enterica.
Data set [35] is described as follows: physchem. Conditions: pampa, pH 7.4.
Data set [36] is described as follows: physchem. As to conditions: pampa, pH 4.

Converted amounts (≈) assume the structure as drawn. The source made the active and inactive calls. Unless noted, the rule behind the calls is not given here. Bounds are passed on as bounds.

In the case of `Cc1cc2nc(-c3nccs3)n(-c3ccc4c(N)nc(N)nc4c3)c2cc1C`, the lowest concentration to inhibit growth against Staphylococcus aureus [1] (MIC) was 0.25 µg/mL (≈ 0.645 µM). Besides, the PD50 in the data set with Staphylococcus aureus [2] stood at 2 mg/kg.
As to `CCCCNc1nc(NCCCC)c2ccccc2n1`, the viability is 100% in data set [3] and over 50% in data set [4]. Moreover, the inhibition entry with Staphylococcus aureus [5] was “inactive”. Moreover, in [6], the viability at up to 459 µM amounted to 58.8%. In addition, in the data set on Staphylococcus aureus [7], the MIC (usually the lowest concentration that inhibits growth of the organism) came to 0.37 µM (≈ 0.101 µg/mL). The MBC50 in the data set on Staphylococcus aureus [8] is 0.036 µM (≈ 0.00981 µg/mL). Moreover, the zone of inhibition at 5000 µg/mL with Staphylococcus aureus [9] worked out at 12 mm.
As to `c1ccc(CNc2nc(NCc3ccccc3)c3ccccc3n2)cc1`, in data set [10], the viability at 370 µM came to 83.6%. Further, the Survival in the data set with Staphylococcus aureus [11] amounted to 69%; in the data set on Staphylococcus aureus [13], 50%. The MIC in the data set on Staphylococcus aureus [12], in the data set with Staphylococcus aureus [15], in the data set on Staphylococcus aureus [16], in the data set on Staphylococcus aureus [20], with Staphylococcus aureus [22] and with Staphylococcus aureus [23] was over 590 µM in each case. The MIC was 2.9 µM (≈ 0.987 µg/mL) in the data set with Staphylococcus aureus [7], over 590 µM with Staphylococcus aureus [30] and over 590 µM in the data set with Staphylococcus aureus [31]. Further, the solubility – broadly, the concentration that dissolves in the medium under given conditions – at 18 h in data set [14] was at most 10 µM; in data set [17], at least 30 µM. The inhibition result with Staphylococcus aureus [5] was “inactive”. Further, the “fractional inhibitory concentration index (FICI)” value in the data set with Staphylococcus aureus [18] is 0.12. In addition, the figures for the logD in data set [19] and in data set [32] were 2.82 and 3.82, respectively. Further, the inhibition entry in the data set on Staphylococcus aureus [21] and in the data set with Staphylococcus aureus [29] was “Active” each time. Besides, the outcome in the data set on Staphylococcus aureus [24] and in the data set with Staphylococcus aureus [25] was Active. Besides, the viability in data set [26] was over 60%. The values for the permeability in data set [27] and in data set [28] were 383 ×10⁻⁶ cm/s and 312 ×10⁻⁶ cm/s, respectively. Moreover, the MBC50 result in the data set on Staphylococcus aureus [8] is “inactive”. Also, in the data set with Staphylococcus aureus [9], the zone of inhibition at 5000 µg/mL was 13 mm. Further, the viability at 1.5 µM in [33] is 93.2%.
As to `c1ccc2c(c1)cc1c3ccccc3nc(-c3csc4ccccc34)n21`, the MIC against Candida albicans, against Bacillus subtilis, in the data set on Aspergillus niger, in the data set on Escherichia coli, against Staphylococcus aureus [34] and in the data set on Trichoderma viride was 2 µg/mL (≈ 5.71 µM) each time. For the same molecule, the MIC in the data set with Streptococcus pyogenes, in the data set with Klebsiella pneumoniae and in the data set on Salmonella typhimurium was 2 µg/mL (≈ 5.71 µM) in each case.
In the case of `Cc1ccc(Nc2nc(-c3ccccc3)nc3ccccc23)cc1`, in the data set with Bacillus subtilis, it took 0.7 µg/mL (≈ 2.25 µM) to reach a half-maximal effect (EC50) and it took 1 µg/mL (≈ 3.21 µM) to inhibit growth (MIC). Also, in the data set with Staphylococcus aureus [34], the EC50 (in general, the midpoint of the concentration-response curve) amounted to 0.8 µg/mL (≈ 2.57 µM) and the MIC was found to be 10 µg/mL (≈ 32.1 µM).
Regarding `CNC(=C[N+](=O)[O-])NCCSCc1ccc(CN(C)C)o1.Cl` [RANITIDINE HYDROCHLORIDE], the values for the Papp in “physchem [35]” and in the data set “physchem [36]” were 2.2 ×10⁻⁶ cm/s and 5.2 ×10⁻⁶ cm/s, respectively.
